Data on one molecule can be found in patent publication US4713386A, “Tetrahydroazeto [2,1-a]isoquinolines and methods for treating depression” (McNeilab, Inc., priority 1986, dated 1987).

Structures are written as SMILES.

The test deals with Mouse. Kind of test: Mouse Tetrabenazine Antagonism Assay (TBZ 32 mg/kg i.p.; exploratory activity and reversal of ptosis). The format is in vivo. To be noted: mice, (1:1) fumarate salt. The procedure: In this test, mice are injected with a test compound 30 min prior to the injection of 32 mg/kg i.p. of TBZ, a drug which decreases normal exploratory activity and induces ptosis. After 30 min. the mice are tested for two parameters: the presence of normal exploratory activity (EA) and reversal of ptosis (Pt). A control group of mice is given only 32 mg/kg i.p. of TBZ. The biological activity of the novel compounds of this invention may be understood by the representative, nonlimiting example, presented in Table I.

The mark [1] stands for this setting: @ 3 mg/kg i.p., 30 min before 32 mg/kg i.p. TBZ.

Regarding `O=C(O)/C=C/C(=O)O.c1ccc([C@@H]2CN3CC[C@@H]3c3ccccc32)cc1` (relative stereo) [Example 1d, trans-1,4,5,9b-Tetrahydro-5-phenyl-2H-azeto[2,1-a]isoquinoline (E)-2-butenedioate], where the note is “Mus musculus, ip, i.p., TBZ 32 mg/kg i.p.”, the ED50 is 1.25 mg/kg. Besides, under setting [1], the “% inhibition EA (exploratory activity)” value worked out at 50% and the “% inhibition Pt (reversal of ptosis)” value is recorded as 88%.
